Reference: publication PMC11098091 (Nature chemical biology, 2022)

Tests used:
human μOR (Gz) = human μOR (Gz) (Homo sapiens, UniProt P35372); assay type: cell-based; settings: read-out: potency at Gz
human μOR (GoB) = human μOR (GoB) (Homo sapiens, UniProt P35372); assay type: cell-based; settings: read-out: potency at GoB
human μOR = human μOR (Homo sapiens, UniProt P35372); assay type: cell-based
[1] = biological target: human μOR (β-arrestin-1, β-arrestin-2) (Homo sapiens, UniProt P35372); assay type: cell-based
μOR Y326^7.43F mutant [2] = biological target: T1, μOR Y326^7.43F mutant (Homo sapiens, UniProt P35372, Y328F); assay type: cell-based
μOR Y326^7.43F mutant [3] = biological target: T1, μOR Y326^7.43F mutant; assay type: cell-based; remark: listed apart in the source
μOR Q124^2.60A mutant [4] = biological target: T2, μOR Q124^2.60A mutant (Homo sapiens, UniProt P35372, Q126A); assay type: cell-based
μOR Q124^2.60A mutant [5] = biological target: T2, μOR Q124^2.60A mutant; assay type: cell-based; remark: listed apart in the source
wild type human μOR [6] = biological target: T3, wild type human μOR (Homo sapiens, UniProt P35372); assay type: cell-based
wild type human μOR [7] = biological target: T3, wild type human μOR; assay type: cell-based; remark: listed apart in the source
mice = settings: mouse, in vivo; cited from earlier work

T3 sequence (P35372 whole entry): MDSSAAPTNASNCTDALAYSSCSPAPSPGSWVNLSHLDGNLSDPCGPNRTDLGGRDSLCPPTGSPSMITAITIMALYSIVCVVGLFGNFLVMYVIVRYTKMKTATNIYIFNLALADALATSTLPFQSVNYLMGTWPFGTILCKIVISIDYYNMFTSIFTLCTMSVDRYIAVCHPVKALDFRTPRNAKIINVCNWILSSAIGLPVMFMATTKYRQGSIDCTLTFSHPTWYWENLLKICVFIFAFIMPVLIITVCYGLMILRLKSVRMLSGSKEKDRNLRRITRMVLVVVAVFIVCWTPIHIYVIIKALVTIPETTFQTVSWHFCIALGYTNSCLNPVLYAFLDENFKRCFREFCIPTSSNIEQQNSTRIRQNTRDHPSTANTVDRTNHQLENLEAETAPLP
Sequence of human μOR (P35372 whole entry): as above
T1 sequence (P35372 whole entry Y328F): as the sequence (P35372 whole entry) above, with Y328F counted along it
T2 sequence (P35372 whole entry Q126A): as the sequence (P35372 whole entry) above, with Q126A counted along it
Sequence of human μOR (Gz) (P35372 whole entry): as the sequence (P35372 whole entry) above
Sequence of human μOR (β-arrestin-1, β-arrestin-2) (P35372 whole entry): as above
Sequence of human μOR (GoB) (P35372 whole entry): as above

CC[C@@H]1CN2CC[C@]3(Nc4cccc(OC)c4C3=O)[C@@H]2C[C@@H]1/C(=C\OC)C(=O)OC [MP, Mitragynine pseudoindoxyl]
EC50 (human μOR (Gz)): 0.9 nM
EC50 (human μOR (GoB)): 3.2 nM
efficacy at Gi/o/z subtypes compared to DAMGO (human μOR): partial agonist
potency spread across G protein subtypes (human μOR): ~ 3 fold
recruitment of β-arrestins [1]: no detectable recruitment
reduction of maximal β-arrestin 2 recruitment by the Y326F mutation (μOR Y326^7.43F mutant [2]): eliminated detectable
reduction of maximal Gi1 activation by the Y326F mutation (μOR Y326^7.43F mutant [3]): 68%
reduction of maximal Gi response by the Q124A mutation (μOR Q124^2.60A mutant [4]): more than half
arrestin recruitment at the Q124A mutant (μOR Q124^2.60A mutant [5]): completely abolishes
potency in G protein dissociation assays (wild type human μOR [6]): as potent as DAMGO
recruitment of β-arrestins (wild type human μOR [7]): very little detectable activity
development of antinociceptive tolerance (mice): much more slowly
potency relative to morphine (mice): approximately ten-fold more potent
respiratory depression (mice): did not cause respiratory depression
